Source: patent publication EP0189941A2, “Antibiotic compositions” (Bristol-Myers Squibb Company, priority 1985, dated 1986)
Read-outs that look alike come from different tables or passages of the source.

Experiments:
[1] = dry state
[2] = Intravenous toxicity test (LD50); conditions: mouse, in vivo, mice, dosing solution 333 mg of cefbuperazone activity per ml, parentheses = 95% confidence limits
Method: Intravenous toxicity tests were conducted in Swiss-Webster mice using the sodium salt of cefbuperazone and the compositions of the present invention. In each case, the dosing solution contained 333 mg of cefbuperazone activity per ml.

[3] = pH of unit dosage forms reconstituted with Sterile Water for Injection; type: physicochemical; conditions: diluted with Sterile Water for Injection, U.S.P. to 333 mg of cefbuperazone activity per ml
[4] = Stability in the dry state (% loss on storage at elevated temperature); conditions: 100°C - 1 day, listed as Lyophilized anhydrous sodium cefbuperazone
[5] = tested on: weanling female Sprague-Dawley rats; experiment: Rat paw-lick test for pain on injection; type: in vivo; conditions: pH 5.3; 0.1 ml subplantar, 333 mg activity per ml; mean 0-3 minutes after injection ± Standard Error
Method: The test animals were weanling female Sprague-Dawley rats. The test solutions were injected into the subplantar tissue of the right or left hind paw, using a syringe with a 27 gauge, 1/2-inch needle. […] The paw-lick response, an indicator of the pain caused by the injection, was recorded for each rat for three minutes following the injection. A paw-licking episode is defined as a licking response followed by a turning of the head away from the paw or five seconds of uninterrupted licking.

[6] = Excerpt: The most preferred pH range of the reconstituted solution is about 4 to about 5, because pain upon injection normally increases with […].
For this reason, it is not possible to give absolute gram amounts of cefbuperazone and lysine, arginine, lysine acetate and/or arginine acetate to produce a specific pH. The amount of each ingredient can readily be determined for individual batches of the two components by titration of the cefbuperazone with the other component.

[7] = physchem; conditions: dry state, % Loss
[8] = Hygroscopicity; type: physicochemical; conditions: in words

CCN1CCN(C(=O)NC(C(=O)NC2(OC)C(=O)N3C(C(=O)O)=C(CSc4nnnn4C)CSC32)C(C)O)C(=O)C1=O (stereo not shown) [sodium cefbuperazone]
% Loss ([1]; 72 h): 37.2% | % Loss ([1]; 336 h): 38.0% | % Loss ([1]; 1344 h): 35.0% | LD50 [2]: > 5000 mg/kg | pH of Solution [3]: 5.3 | % Loss [4]: melts/decomposes | Paw-Lick Response [5]: 5.20 ± 1.31 (10)

CCN1CCN(C(=O)NC(C(=O)NC2(OC)C(=O)N3C(C(=O)O)=C(CSc4nnnn4C)CSC32)C(C)O)C(=O)C1=O (stereo not shown) [Cefbuperazone free acid dihydrate]
% Loss ([1]; 24 h): + 4.5% | % Loss ([1]; 48 h): + 3.3% | % Loss ([1]; 336 h): + 4.6% | % Loss ([1]; 1344 h): + 2.2% | water solubility [6]: insufficiently water-soluble | pH at which solution of the cefbuperazone takes place ([6]; 264.4 mg suspended in 10 ml of water, titrated with aqueous L(+) lysine): ~3.5 | degraded at 168 h [7]: 3.7% | degraded at 840 h [7]: 0% | degraded at 1008 h [7]: 1.8%

CCN1CCN(C(=O)NC(C(=O)NC2(OC)C(=O)N3C(C(=O)O)=C(CSc4nnnn4C)CSC32)C(C)O)C(=O)C1=O (stereo not shown) [Cefbuperazone free acid hemiacetonate]
% Loss ([1]; 48 h): 0% | % Loss ([1]; 336 h): 0% | hygroscopicity [8]: non- hygroscopic

CCN1CCN(C(=O)NC(C(=O)NC2(OC)C(=O)N3C(C(=O)O)=C(CSc4nnnn4C)CSC32)C(C)O)C(=O)C1=O (stereo not shown) [Anhydrous cefbuperazone free acid]
% Loss ([1]; 72 h): 7.8% | % Loss ([1]; 168 h): 4.1% | % Loss ([1]; 672 h): 3.4%
